A short description of data set [1]: Mouse plasma stability protocol, up to 1 h (Examples 16-18). The following applies: % Remaining of parent after 1 h incubation in mouse plasma at 37° C. (10 μM).
The conditions of data set [2]: female, SCID, mouse, in vivo.
Data set [3] can be described thus: Metabolite profiling and identification. To be noted: for Metabolite N-dealkylation + glucuronidation: M+1 527.3; for Metabolite Sulfation: M+1 542.3; for Metabolite Hydrolysis (SN-38): M+1 393.3; for Metabolite Hydrolysis (SDC-TRAP-0062): M+1 462.3; for Metabolite Hydrolysis (SN-38) + glucuronidation: M+1 569.3; for Metabolite Hydrolysis (SDC-TRAP-0062) + glucuronidation: M+1 638.3; for Metabolite Hydrolysis (SDC-TRAP-0063): M+1 880.3; for Metabolite Hydrolysis (SDC-TRAP-0063) + glucuronidation: M+1 1056.4; for Metabolite Glucuronidation: M+1 1136.4. Also noted: key: —: Not detected. It counts as in vitro ADME. From the text: Metabolite Profiling and Identification: Metabolite profiling/identification for SDC-TRAP-0063 (M+1:880.3)

Like-named read-outs stand apart in the source and are kept apart here.

For the molecule `CCc1c2c(nc3ccc(O)cc13)-c1cc3c(c(=O)n1C2)COC(=O)C3(CC)OC(=O)N1CCN(C(=O)C2CCN(c3ccc(-n4c(O)nnc4-c4cc(C(C)C)c(O)cc4O)cc3)CC2)CC1` (stereo not shown), the “% Remaining (1 h)” value in data set [1] was 108%.

Consider `CC(C)c1cc(-c2nnc(O)n2-c2ccc3c(ccn3CCC3CCNCC3)c2)c(O)cc1O` [DP-1], for which the entries for the “Tumor Conc.” value in data set [2] (24 h), in data set [2] (48 h) and in data set [2] ([…]) were 0.404 nmol/g of tissue, 1.06 nmol/g of tissue and 0.00758 nmol/g of tissue, respectively.

As for `CC(C)c1cc(-c2nnc(O)n2-c2ccc3c(ccn3CCC3CCNCC3)c2)c(O)cc1O` [SDC-TRAP-0062], the “Metabolite N-dealkylation + glucuronidation” value in data set [3] (Hepatocytes Dog) is reported as “√”; in data set [3] (Hepatocytes Human), “√”; in data set [3] (Hepatocytes Monkey), “—”; in data set [3] (Hepatocytes Mouse), “√”; in data set [3] (Hepatocytes Rat), “—”. Moreover, the “Metabolite Sulfation” value in data set [3] (Hepatocytes Mouse) was “—”; in data set [3] (Hepatocytes Rat), “√”.

`CCc1c2c(nc3ccc(OC(=O)N4CCC(CCn5ccc6cc(-n7c(O)nnc7-c7cc(C(C)C)c(O)cc7O)ccc65)CC4)cc13)-c1cc3c(c(=O)n1C2)COC(=O)C3(CC)OP(=O)(O)O` (stereo not shown) [SDC-TRAP-0397, 4,11-diethyl-3,14-dioxo-4-(phosphonooxy)-3,4,12,14-tetrahydro-1H-pyrano[3′,4′: 6,7]indolizino[1,2-b]quinolin-9-yl 4-(2-(5-(3-(2,4-dihydroxy-5-isopropylphenyl)-5-hydroxy-4H-1,2,4-triazol-4-yl)-1H-indol-1-yl)ethyl)piperidine-1-carboxylate]: in data set [3] (Hepatocytes Dog), the “Metabolite Hydrolysis (SN-38)” value is “√”, the “Metabolite Hydrolysis (SDC-TRAP-0062)” value is recorded as “√”, the “Metabolite Hydrolysis (SN-38) + glucuronidation” value is recorded as “—” and the “Metabolite Hydrolysis (SDC-TRAP-0062) + glucuronidation” value is on record as “—”. Further, in data set [3] (Hepatocytes Dog), the “Metabolite Hydrolysis (SDC-TRAP-0063)” value was “—”, the “Metabolite Hydrolysis (SDC-TRAP-0063) + glucuronidation” value was “—” and the “Metabolite Glucuronidation” value is on record as “—”. In data set [3] (Hepatocytes Human), the “Metabolite Hydrolysis (SN-38)” value is “√”, the “Metabolite Hydrolysis (SDC-TRAP-0062)” value is “√”, the “Metabolite Hydrolysis (SN-38) + glucuronidation” value is listed as “—” and the “Metabolite Hydrolysis (SDC-TRAP-0062) + glucuronidation” value is recorded as “—”. In data set [3] (Hepatocytes Human), the “Metabolite Hydrolysis (SDC-TRAP-0063)” value is given as “√”, the “Metabolite Hydrolysis (SDC-TRAP-0063) + glucuronidation” value was “√” and the “Metabolite Glucuronidation” value is on record as “—”. In data set [3] (Hepatocytes Monkey), the “Metabolite Hydrolysis (SN-38)” value is reported as “—”, the “Metabolite Hydrolysis (SDC-TRAP-0062)” value is “—”, the “Metabolite Hydrolysis (SN-38) + glucuronidation” value is “√” and the “Metabolite Hydrolysis (SDC-TRAP-0062) + glucuronidation” value is “√”. For the same molecule, in data set [3] (Hepatocytes Monkey), the “Metabolite Hydrolysis (SDC-TRAP-0063)” value is reported as “—”, the “Metabolite Hydrolysis (SDC-TRAP-0063) + glucuronidation” value is listed as “√” and the “Metabolite Glucuronidation” value is reported as “√”. Also, in data set [3] (Hepatocytes Mouse), the “Metabolite Hydrolysis (SN-38)” value is recorded as “√”, the “Metabolite Hydrolysis (SDC-TRAP-0062)” value was “√”, the “Metabolite Hydrolysis (SN-38) + glucuronidation” value is listed as “—” and the “Metabolite Hydrolysis (SDC-TRAP-0062) + glucuronidation” value was “—”. Moreover, in data set [3] (Hepatocytes Mouse), the “Metabolite Hydrolysis (SDC-TRAP-0063)” value is “—”, the “Metabolite Hydrolysis (SDC-TRAP-0063) + glucuronidation” value is “√” and the “Metabolite Glucuronidation” value was “√”. Moreover, in data set [3] (Hepatocytes Rat), the “Metabolite Hydrolysis (SN-38)” value was “—”, the “Metabolite Hydrolysis (SDC-TRAP-0062)” value is recorded as “√”, the “Metabolite Hydrolysis (SN-38) + glucuronidation” value is recorded as “—” and the “Metabolite Hydrolysis (SDC-TRAP-0062) + glucuronidation” value is on record as “—”. In data set [3] (Hepatocytes Rat), the “Metabolite Hydrolysis (SDC-TRAP-0063)” value is on record as “—”, the “Metabolite Hydrolysis (SDC-TRAP-0063) + glucuronidation” value is recorded as “√” and the “Metabolite Glucuronidation” value is given as “—”.

The values are drawn from patent US10828315B2 (Madrigal Pharmaceuticals, Inc., priority 2013, dated 2020).
